Results as given in US9199975B2, “Biaryl imidazole derivatives for regulating CYP17” (Asana Biosciences, LLC, priority 2011, dated 2015).

What follows are molecules tested against T1, human CYP17 (Homo sapiens, UniProt P05093) (assay: Cell-based human CYP17 inhibition assay, H295R adrenocortical carcinoma cells). Settings: 16 hours at 37° C., read-out: CYP17 (human H295R adrenal cells).
T1 sequence (P05093 1-508): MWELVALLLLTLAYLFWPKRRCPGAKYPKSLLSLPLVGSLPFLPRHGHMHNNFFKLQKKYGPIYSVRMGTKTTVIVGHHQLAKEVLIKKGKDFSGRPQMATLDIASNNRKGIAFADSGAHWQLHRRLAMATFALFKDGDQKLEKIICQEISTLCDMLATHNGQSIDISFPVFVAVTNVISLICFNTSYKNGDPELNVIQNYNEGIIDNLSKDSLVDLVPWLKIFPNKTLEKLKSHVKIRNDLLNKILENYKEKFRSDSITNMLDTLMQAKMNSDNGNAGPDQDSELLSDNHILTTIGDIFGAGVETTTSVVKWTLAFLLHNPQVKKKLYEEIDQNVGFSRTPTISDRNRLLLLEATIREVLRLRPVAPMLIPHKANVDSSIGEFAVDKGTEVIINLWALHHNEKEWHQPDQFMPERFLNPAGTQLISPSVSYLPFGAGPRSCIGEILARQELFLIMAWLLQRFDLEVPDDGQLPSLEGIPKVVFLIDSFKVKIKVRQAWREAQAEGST
Parameters: H295R Adrenocortical carcinoma cells [NCI-H295A, ATCC Number CRL-2128, American Type Culture Collection; host or cells: H295R adrenocortical carcinoma cells
Protocol: Cell-Based Human CYP17 Inhibition Assay
A. Materials • 1. H295R Adrenocortical Carcinoma Cells and Growth Media: The media for the H295R Adrenocortical carcinoma cells [NCI-H295A, ATCC Number CRL-2128, American Type Culture Collection, Manassas, Va., US] (500 mL) was a DMEM:F12 Mix 1:1 with 5% […] BD Nu Serum; 1% (5 mL) ITS+Premix [BD Biosciences] and 1% Penstrep. • 2. LNCap-CYP17 Cells and Growth Media: Full length hCYP17a1 gene (NCBI Reference Sequence: NM_000102.3) was cloned in pCDNA3.1(+) vector between HindIII and XhoI site. The pCDNA3.1(+) vector contains the Neomycin resistance gene and was used for selection of stable cell line. The hCYP17a1 containing pCDNA3.1(+) was transfected into LNCap cells to create the LNCap-CYP17 cell line. The media for the LNCaP-CYP17 cells was RPMI 1640, 10% FBS, 1% PenStrep, Geneticin 400 μg/mL.
The H295R cells or LNCaP-hCYP17 cells were subcultured and 30,000 cells per well were seeded in a poly-d lysine plate and incubated overnight at 37° C. The next day the media was removed and 200 µL of fresh media with ^3H3-17α-hydroxy-pregnenolone (1:1000) was added. 50 μL of serially diluted compounds from a 5× plate (5 times the final desired concentration) was added. The working concentration range for active, new compounds started from a high concentration of […] with 3-fold serial dilutions generating up to 10 concentrations. The serial dilution in the 100× plate (in DMSO) and the stamping of a 5× plate (in media) from the 100× plate were carried out using a TECAN liquid handling device.
The plates were incubated overnight (16 hours) at 37° C. After 16 hours, the media was removed (approximately 220 μL) and an equal amount of chloroform was added, mixed and incubated for 30 minutes at 4 degrees. The plate was centrifuged at 4000 rpm for 15 minutes at 4° C., following which the top aqueous layer was carefully removed and added into a new deep well plate. An equal volume of activated 5% charcoal was added, mixed and incubated for 30 minutes at 4° C. The plate was then centrifuged at 4000 rpm for 15 minutes at 4° C. and the top layer carefully separated, avoiding any charcoal contamination, and placed in a white, clear bottom plate (plate cat #3610, Corning Life Sciences). An equal volume of Microscint™ 40 was added and mixed well. Following the incubation for 30 minutes, readings for the radiotracer were taken using a Microbeta® trilux.

| Compound | IC50 [µM] |
| --- | --- |
| COc1ccc(-c2ccc(C(CC(C)C)n3ccnc3)s2)cc1 (centres unmarked) [Example 39, 1-{1-[5-(4-Methoxy-phenyl)-thiophen-2-yl]-3-methyl-butyl}-1H-imidazole] | < 0.05 |
| COc1ccc(-c2ccc(C(C)n3ccnc3)s2)cc1 (centres unmarked) [Example 36, 1-{1-[5-(4-Methoxy-phenyl)-thiophen-2-yl]-ethyl}-1H-imidazole] | < 0.05 |
| CC(c1ccc(-c2ccc(F)cc2)cn1)n1ccnc1 (centres unmarked) [Example 12, 2-(1-(1H-imidazol-1-yl)ethyl)-5-(4-fluorophenyl)pyridine] | < 0.05 |
| CCC(c1ccc(-c2ccc(F)cc2)cn1)n1ccnc1 (centres unmarked) [Example 29, 5-(4-Fluoro-phenyl)-2-(1-imidazol-1-yl-propyl)-pyridine] | < 0.05 |
| CC(c1ccc(-c2ccc(O)cc2)cn1)n1ccnc1 (centres unmarked) [Example 16, 4-(6-(1-(1H-imidazol-1-yl)ethyl)pyridin-3-yl)phenol] | 0.05 to 0.2 |
| CCC(c1ccc(-c2ccc(OC)cc2)s1)n1ccnc1 (centres unmarked) [Example 3, 1-(1-(5-(4-methoxyphenyl)thiophen-2-yl)propyl)-1H-imidazole] | < 0.05 |
| CC(c1ccc(-c2ccoc2)cn1)n1ccnc1 (centres unmarked) [Example 13, 2-(1-(1H-imidazol-1-yl)ethyl)-5-(furan-3-yl)pyridine] | 0.201 to 10 |
| CCC(c1ccc(-c2ccc(C(=O)NC)cc2)cn1)n1ccnc1 (centres unmarked) [Example 9, 4-(6-(1-(1H-imidazol-1-yl)propyl)pyridin-3-yl)-N-methylbenzamide] | 0.201 to 10 |
| CC(=O)Nc1ccc(-c2ccc(C(C)n3ccnc3)nc2)cc1 (centres unmarked) [Example 64, N-{4-[6-(1-Imidazol-1-yl-ethyl)-pyridin-3-yl]-phenyl}-acetamide] | 0.201 to 10 |
| CCC(c1ccc(-c2ccc(C#N)cc2)cn1)n1ccnc1 (centres unmarked) [Example 17, 4-[6-(1-Imidazol-1-yl-propyl)-pyridin-3-yl]-benzonitrile] | 0.05 to 0.2 |
| CC(c1cnc(-c2ccc(C(=O)O)cc2)s1)n1ccnc1 (centres unmarked) [Example 65, 4-[5-(1-Imidazol-1-yl-ethyl)-thiazol-2-yl]-benzoic acid] | 0.201 to 10 |
| CC(c1cnc(-c2ccc(C#N)cc2)s1)n1ccnc1 (centres unmarked) [Example 22, 4-(5-(1-(1H-imidazol-1-yl)ethyl)thiazol-2-yl)benzonitrile] | 0.05 to 0.2 |
| CCC(c1ccc(-c2ccccc2OC)cn1)n1ccnc1 (centres unmarked) [Example 56, 2-(1-Imidazol-1-yl-propyl)-5-(2-methoxy-phenyl)-pyridine] | 0.05 to 0.2 |
| CC(c1ccc(-c2ccc(O)cc2)s1)n1ccnc1 (centres unmarked) [Example 49, 4-[5-(1-Imidazol-1-yl-ethyl)-thiophen-2-yl]-phenol] | < 0.05 |
| CCC(c1ccc(-c2ccc(O)cc2)cn1)n1ccnc1 (centres unmarked) [Example 50, 4-[6-(1-Imidazol-1-yl-propyl)-pyridin-3-yl]-phenol] | < 0.05 |
| CCC(c1cnc(-c2ccc(F)cc2)s1)n1ccnc1 (centres unmarked) [Example 33, 2-(4-Fluoro-phenyl)-5-(1-imidazol-1-yl-propyl)-thiazole] | < 0.05 |
| CCC(c1ccc(-c2ccc(C(N)=O)cc2)cn1)n1ccnc1 (centres unmarked) [Example 10, 4-(6-(1-(1H-imidazol-1-yl)propyl)pyridin-3-yl)benzamide] | 0.201 to 10 |
| COc1ccc(-c2ccc(C(CC(C)C)n3ccnc3)nc2)cc1 (centres unmarked) [Example 62, 2-(1-Imidazol-1-yl-3-methyl-butyl)-5-(4-methoxy-phenyl)-pyridine] | 0.05 to 0.2 |
| COc1ccc(-c2ccc(C(C)(C)n3ccnc3)nc2)cc1 [Example 61, 2-(1-Imidazol-1-yl-1-methyl-ethyl)-5-(4-methoxy-phenyl)-pyridine] | 0.05 to 0.2 |
| CC(c1ccc(-c2ccc(F)cc2)nc1)n1ccnc1 (centres unmarked) [Example 54, 2-(4-Fluoro-phenyl)-5-(1-imidazol-1-yl-ethyl)-pyridine] | 0.201 to 10 |
| CC(c1ccc(-c2cccc(F)c2)cn1)n1ccnc1 (centres unmarked) [Example 57, 5-(3-Fluoro-phenyl)-2-(1-imidazol-1-yl-ethyl)-pyridine] | 0.05 to 0.2 |
| CCc1cc(F)ccc1-c1ncc(C(CC)n2ccnc2)s1 (centres unmarked) [Example 46, 2-(2-Ethyl-4-fluoro-phenyl)-5-(1-imidazol-1-yl-propyl)-thiazole] | < 0.05 |
| COc1ccc(-c2cccnc2C(C)n2ccnc2)cc1 (centres unmarked) [Example 66, 2-(1-(1H-imidazol-1-yl)ethyl)-3-(4-methoxyphenyl)-pyridine] | < 0.05 |
| CC(C)(c1ccc(-c2ccc(O)cc2)cn1)n1ccnc1 [Example 52, 4-[6-(1-Imidazol-1-yl-1-methyl-ethyl)-pyridin-3-yl]-phenol] | 0.05 to 0.2 |
| CCC(c1ccc(-c2ccccc2F)cn1)n1ccnc1 (centres unmarked) [Example 48, 5-(2-Fluoro-phenyl)-2-(1-imidazol-1-yl-propyl)-pyridine] | < 0.05 |
| CCOC(=O)c1ccc(-c2ncc(C(C)n3ccnc3)s2)cc1 (centres unmarked) [Example 55, 4-[5-(1-Imidazol-1-yl-ethyl)-thiazol-2-yl]-benzoic acid ethyl ester] | 0.05 to 0.2 |
